According to the supplement of paper PMC10733146:

Key:
Assay in all cases: viability relative to DMSO control (fraction); higher = less drug effect (more viable cells)
Details in all cases: 48 h
[1] = test system: primary AML patient cells (S060)
Summary of the method: (§1)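 In 384-well plates with compounds pre-plated at five concentrations (one well per concentration), primary mononuclear tumour cells were plated at 4 × 10^4 cells per well. The cells came from blood or bone marrow by Ficoll isolation or from processed lymph node, and were used fresh or cryopreserved. Culture ran for 48 h at 37 °C and 5% CO2 in RPMI-1640 containing penicillin/streptomycin, L-glutamine and human serum. Viability was read as CellTiter-Glo luminescence, normalised to the median of 16 inner DMSO wells.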

[2] = test system: primary DLBCL patient cells (S049)
Summary of the method: as §1

[3] = test system: primary CLL patient cells (S043)
Summary of the method: as §1

[4] = test system: primary DLBCL patient cells (S076)
Summary of the method: as §1

[5] = test system: primary ALL patient cells (S048)
Summary of the method: as §1

[6] = test system: primary AML patient cells (S056)
Summary of the method: as §1

[7] = test system: primary AML patient cells (S079)
Summary of the method: as §1

[8] = test system: primary ALL patient cells (S088)
Summary of the method: as §1

[9] = test system: primary AML patient cells (S089)
Summary of the method: as §1

[10] = test system: primary T-NHL patient cells (S058)
Summary of the method: as §1

[11] = test system: primary AML patient cells (S072)
Summary of the method: as §1

[12] = test system: primary AML patient cells (S006)
Summary of the method: as §1

[13] = test system: primary AML patient cells (S071)
Summary of the method: as §1

[14] = test system: primary CLL patient cells (S031)
Summary of the method: as §1

[15] = test system: primary MCL patient cells (S063)
Summary of the method: as §1

[16] = test system: primary DLBCL patient cells (S082)
Summary of the method: as §1

[17] = test system: primary AML patient cells (S055)
Summary of the method: as §1

COc1ccc(C2=N[C@@H](c3ccc(Cl)cc3)[C@@H](c3ccc(Cl)cc3)N2C(=O)N2CCNC(=O)C2)c(OC(C)C)c1 [Nutlin-3a]
viability ([1]; 0.032 µM): 1.02
viability ([1]; 0.16 µM): 0.99
viability ([1]; 0.8 µM): 1.03
viability ([1]; 4 µM): 1.01
viability ([1]; 20 µM): 0.974
viability ([2]; 0.032 µM): 1.1
viability ([2]; 0.16 µM): 0.987
viability ([2]; 0.8 µM): 1.01
viability ([2]; 4 µM): 1.04
viability ([2]; 20 µM): 0.835
viability ([3]; 0.032 µM): 1.05
viability ([3]; 0.16 µM): 1.01
viability ([3]; 0.8 µM): 1.04
viability ([3]; 4 µM): 0.894
viability ([3]; 20 µM): 0.322
viability ([4]; 0.032 µM): 0.907
viability ([4]; 0.16 µM): 0.909
viability ([4]; 0.8 µM): 0.934
viability ([4]; 4 µM): 0.737
viability ([4]; 20 µM): 0.357
viability ([5]; 0.032 µM): 0.97
viability ([5]; 0.16 µM): 0.995
viability ([5]; 0.8 µM): 0.881
viability ([5]; 4 µM): 0.506
viability ([5]; 20 µM): 0.056
viability ([6]; 0.032 µM): 1.1
viability ([6]; 0.16 µM): 1.07
viability ([6]; 0.8 µM): 0.706
viability ([6]; 4 µM): 0.425
viability ([6]; 20 µM): 0.45
viability ([7]; 0.032 µM): 1.02
viability ([7]; 0.16 µM): 1.01
viability ([7]; 0.8 µM): 0.972
viability ([7]; 4 µM): 0.868
viability ([7]; 20 µM): 0.61
viability ([8]; 0.032 µM): 0.954
viability ([8]; 0.16 µM): 0.854
viability ([8]; 0.8 µM): 0.795
viability ([8]; 4 µM): 0.355
viability ([8]; 20 µM): 0.133
viability ([9]; 0.032 µM): 1.07
viability ([9]; 0.16 µM): 1.01
viability ([9]; 0.8 µM): 1.01
viability ([9]; 4 µM): 0.802
viability ([9]; 20 µM): 0.511
viability ([10]; 0.032 µM): 0.946
viability ([10]; 0.16 µM): 0.939
viability ([10]; 0.8 µM): 0.941
viability ([10]; 4 µM): 0.634
viability ([10]; 20 µM): 0.18
viability ([11]; 0.032 µM): 1.04
viability ([11]; 0.16 µM): 0.956
viability ([11]; 0.8 µM): 0.875
viability ([11]; 4 µM): 0.78
viability ([11]; 20 µM): 0.693
viability ([12]; 0.032 µM): 1.01
viability ([12]; 0.16 µM): 0.917
viability ([12]; 0.8 µM): 0.694
viability ([12]; 4 µM): 0.136
viability ([12]; 20 µM): 0.0568
viability ([13]; 0.032 µM): 0.982
viability ([13]; 0.16 µM): 0.78
viability ([13]; 0.8 µM): 0.342
viability ([13]; 4 µM): 0.117
viability ([13]; 20 µM): 0.0641
viability ([14]; 0.032 µM): 0.869
viability ([14]; 0.16 µM): 0.929
viability ([14]; 0.8 µM): 0.8
viability ([14]; 4 µM): 0.451
viability ([14]; 20 µM): 0.089
viability ([15]; 0.032 µM): 0.998
viability ([15]; 0.16 µM): 0.985
viability ([15]; 0.8 µM): 0.984
viability ([15]; 4 µM): 0.608
viability ([15]; 20 µM): 0.215
viability ([16]; 0.032 µM): 1.07
viability ([16]; 0.16 µM): 1.02
viability ([16]; 0.8 µM): 1.1
viability ([16]; 4 µM): 1.04
viability ([16]; 20 µM): 1.12
viability ([17]; 0.032 µM): 1.03
viability ([17]; 0.16 µM): 1.02
viability ([17]; 0.8 µM): 0.977
viability ([17]; 4 µM): 0.911
viability ([17]; 20 µM): 0.306

O=C(c1cc(Cc2n[nH]c(=O)c3ccccc23)ccc1F)N1CCN(C(=O)C2CC2)CC1 [Olaparib]
viability ([1]; 0.024 µM): 0.947
viability ([1]; 0.12 µM): 0.926
viability ([1]; 0.6 µM): 0.979
viability ([1]; 3 µM): 0.973
viability ([1]; 15 µM): 0.987
viability ([2]; 0.024 µM): 0.857
viability ([2]; 0.12 µM): 0.937
viability ([2]; 0.6 µM): 0.92
viability ([2]; 3 µM): 0.894
viability ([2]; 15 µM): 0.735
viability ([3]; 0.024 µM): 0.797
viability ([3]; 0.12 µM): 0.814
viability ([3]; 0.6 µM): 0.835
viability ([3]; 3 µM): 0.867
viability ([3]; 15 µM): 0.825
viability ([4]; 0.024 µM): 0.91
viability ([4]; 0.12 µM): 1.05
viability ([4]; 0.6 µM): 1.12
viability ([4]; 3 µM): 1
viability ([4]; 15 µM): 0.955
viability ([5]; 0.024 µM): 0.685
viability ([5]; 0.12 µM): 0.799
viability ([5]; 0.6 µM): 0.786
viability ([5]; 3 µM): 0.771
viability ([5]; 15 µM): 0.7
viability ([6]; 0.024 µM): 1.05
viability ([6]; 0.12 µM): 0.922
viability ([6]; 0.6 µM): 1.05
viability ([6]; 3 µM): 1.15
viability ([6]; 15 µM): 1.17
viability ([7]; 0.024 µM): 0.828
viability ([7]; 0.12 µM): 0.844
viability ([7]; 0.6 µM): 0.898
viability ([7]; 3 µM): 0.893
viability ([7]; 15 µM): 0.815
viability ([8]; 0.024 µM): 0.579
viability ([8]; 0.12 µM): 0.775
viability ([8]; 0.6 µM): 0.788
viability ([8]; 3 µM): 0.821
viability ([8]; 15 µM): 0.787
viability ([9]; 0.024 µM): 0.959
viability ([9]; 0.12 µM): 0.82
viability ([9]; 0.6 µM): 0.883
viability ([9]; 3 µM): 0.63
viability ([9]; 15 µM): 0.814
viability ([10]; 0.024 µM): 1.09
viability ([10]; 0.12 µM): 1.11
viability ([10]; 0.6 µM): 1.18
viability ([10]; 3 µM): 1.13
viability ([10]; 15 µM): 0.999
viability ([11]; 0.024 µM): 0.829
viability ([11]; 0.12 µM): 0.891
viability ([11]; 0.6 µM): 0.914
viability ([11]; 3 µM): 0.885
viability ([11]; 15 µM): 0.852
viability ([12]; 0.024 µM): 0.94
viability ([12]; 0.12 µM): 0.986
viability ([12]; 0.6 µM): 1.01
viability ([12]; 3 µM): 0.884
viability ([12]; 15 µM): 0.722
viability ([13]; 0.024 µM): 0.974
viability ([13]; 0.12 µM): 1.01
viability ([13]; 0.6 µM): 1.02
viability ([13]; 3 µM): 0.917
viability ([13]; 15 µM): 0.806
viability ([14]; 0.024 µM): 0.814
viability ([14]; 0.12 µM): 0.89
viability ([14]; 0.6 µM): 0.913
viability ([14]; 3 µM): 0.829
viability ([14]; 15 µM): 0.854
viability ([15]; 0.024 µM): 0.872
viability ([15]; 0.12 µM): 0.936
viability ([15]; 0.6 µM): 0.893
viability ([15]; 3 µM): 0.933
viability ([15]; 15 µM): 0.886
viability ([16]; 0.024 µM): 0.835
viability ([16]; 0.12 µM): 0.887
viability ([16]; 0.6 µM): 0.878
viability ([16]; 3 µM): 0.817
viability ([16]; 15 µM): 0.718
viability ([17]; 0.024 µM): 0.937
viability ([17]; 0.12 µM): 0.899
viability ([17]; 0.6 µM): 0.91
viability ([17]; 3 µM): 0.965
viability ([17]; 15 µM): 0.919
